For assay [1], the system named is ID188 patient-derived PDAC 2D line (pre-FOLFIRINOX). Kind of assay: normalised area under dose-response curve (viability relative to DMSO, 7 doses up to 10 µM) (fraction (AUC)); higher = less sensitive (more viability retained). To be noted: 72 h; top dose: 10 µM. An outline of the steps:
(§1)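 2D PDAC cells grown out from patient-derived organoids were robotically seeded in 96-well plates at 1,500–3,000 cells/well and kept overnight at 37°C in 5% CO2. Compounds from a SelleckChem library were then applied for 72 h at seven concentrations, made as a 3-fold dilution series with 10 µM as the highest. CellTiter-Glo luminescence was measured 10 min later. Viability was normalised to control wells, and the GRmetrics R package was used to derive the area under the dose-response curve.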

For assay [2], the system named is ID211 patient-derived PDAC 2D line (post-FOLFIRINOX). The assay is described as above. The note with it: 72 h; top dose: 10 µM. The procedure, abridged:
as §1

Turning to `Cc1cc(Nc2cc(N)ncn2)c(=O)n2c1C(=O)NC21CCCCC1` [eFT-508 (eFT508)], the “normalised area under dose-response curve” value in assay [1] came to 0.977; in assay [2] it was 1.01.

(Values after the supplement of paper PMC8988213.)
